Laboratory results taken from US9957271B2, “Substituted bicyclic aza-heterocycles and analogues as sirtuin modulators” (GlaxoSmithKline, LLC, priority 2012, dated 2018).
One block for each molecule: values may come before it.

Biological target: T1, SIRT1 (Homo sapiens, UniProt Q96EB6)
T1 sequence (Q96EB6 1-747): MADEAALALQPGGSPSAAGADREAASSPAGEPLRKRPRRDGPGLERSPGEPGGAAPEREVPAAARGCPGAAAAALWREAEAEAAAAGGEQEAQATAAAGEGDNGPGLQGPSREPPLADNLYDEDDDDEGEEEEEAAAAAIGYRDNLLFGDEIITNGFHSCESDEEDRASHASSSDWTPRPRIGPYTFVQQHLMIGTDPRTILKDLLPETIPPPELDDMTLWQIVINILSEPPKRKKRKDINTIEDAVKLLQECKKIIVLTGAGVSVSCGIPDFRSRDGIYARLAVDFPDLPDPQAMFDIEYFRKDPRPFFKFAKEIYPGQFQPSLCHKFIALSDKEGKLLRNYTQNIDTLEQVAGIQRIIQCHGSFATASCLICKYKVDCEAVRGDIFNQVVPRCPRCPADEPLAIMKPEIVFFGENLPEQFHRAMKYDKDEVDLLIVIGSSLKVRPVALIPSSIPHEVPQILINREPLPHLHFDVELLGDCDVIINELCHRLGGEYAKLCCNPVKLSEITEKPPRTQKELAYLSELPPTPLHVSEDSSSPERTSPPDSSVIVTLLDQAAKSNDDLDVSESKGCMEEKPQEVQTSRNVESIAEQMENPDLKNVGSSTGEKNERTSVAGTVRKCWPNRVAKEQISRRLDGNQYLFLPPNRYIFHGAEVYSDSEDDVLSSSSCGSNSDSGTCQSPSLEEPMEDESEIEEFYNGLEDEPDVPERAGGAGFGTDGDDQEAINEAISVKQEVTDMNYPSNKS
Test: TAMRA based mass spectrometry assay of SIRT1 activity
Type: biochemical
Details: TAMRA peptide substrate; for TAMRA EC1.5 (μM): concentration of test compound giving 150% activation of SIRT1; for Emax: percent maximum fold activation of SIRT1, read-out: TAMRA % Fold Act
Text: Mass spectrometry based assays were used to identify modulators of SIRT1 activity. The TAMRA based assay utilized a peptide having 20 amino acid residues as follows: Ac-EE-K(biotin)-[…](Ac)NleSTEG-K(5TMR)-EE-NH2 (SEQ ID NO: 1), wherein K(Ac) is an acetylated lysine residue and Nle is a norleucine. The peptide was labeled with the fluorophore 5TMR (excitation 540 nm/emission 580 nm) at the C-terminus. The sequence of the peptide substrate was based on p53 with several modifications. In addition, the methionine residue naturally present in the sequence was replaced with the norleucine because the methionine may be susceptible to oxidation during synthesis and purification. The Trp based assay utilized a peptide having an amino acid residues as follows: Ac-R-H-K-K(Ac)-W-NH2 (SEQ ID NO: 2).
The TAMRA based mass spectrometry assay was conducted as follows: 0.5 μM peptide substrate and 120 μM βNAD^+ was incubated with 10 nM SIRT1 for 25 minutes at 25° C. in a reaction buffer (50 mM Tris-acetate pH 8, 137 mM NaCl, 2.7 mM KCl, 1 mM MgCl2, 5 mM DTT, 0.05% BSA). The SIRT1 protein was obtained by cloning the SirT1 gene into a T7-promoter containing vector, which was then transformed and expressed in BL21(DE3) bacterial cells. Test compound was added at varying concentrations to this reaction mixture and the resulting reactions were monitored. After the 25 minute incubation with SIRT1, 10 μL of 10% formic acid was added to stop the reaction. The resulting reactions were sealed and frozen for later mass spec analysis. Determination of the amount of deacetylated substrate peptide formed (or, alternatively, the amount of O-acetyl-ADP-ribose (OAADPR) generated) by the sirtuin-mediated NAD-dependent deacetylation reaction allowed for the precise measurement of relative SIRT1 activity in the presence of varying concentrations of the test compound versus control reactions lacking the test compound.
A control for inhibition of sirtuin activity was conducted by adding 1 μL of 500 mM nicotinamide as a negative control at the start of the reaction (e.g., permits determination of maximum sirtuin inhibition). A control for activation of sirtuin activity was conducted using 10 nM of sirtuin protein, with 1 μL of DMSO in place of compound, to determine the amount of deacetylation of the substrate at a given time point within the linear range of the assay. This time point was the same as that used for test compounds and, within the linear range, the endpoint represents a change in velocity.
For the above assay, SIRT1 protein was expressed and purified as follows. The SirT1 gene was cloned into a T7-promoter containing vector and transformed into BL21(DE3). The protein was expressed by induction with 1 mM IPTG as an N-terminal His-tag fusion protein at 18° C. overnight and harvested at 30,000×g. Cells were lysed with lysozyme in lysis buffer (50 mM Tris-HCl, 2 mM Tris[2-carboxyethyl]phosphine (TCEP), 10 μM ZnCl2, 200 mM NaCl) and further treated with sonication for […] for complete lysis. The protein was purified over a Ni-NTA column (Amersham) and fractions containing pure protein were pooled, concentrated and run over a sizing column (Sephadex S200 26/60 global). The peak containing soluble protein was collected and run on an Ion-exchange column (MonoQ). Gradient elution (200 mM-500 mM NaCl) yielded pure protein. This protein was concentrated and dialyzed against dialysis buffer (20 mM Tris-HCl, 2 mM TCEP) overnight. The protein was aliquoted and frozen at −80° C. until further use.

SMILES: Cc1ncccc1-c1ccc2ncc(C(=O)Nc3ccnc(N4CCC4)c3)n2n1 [Compound 63]
TAMRA EC1.5 (μM): C (EC1.5>25 μM)
Emax: < 350%

SMILES: Cc1nc(C)c(-c2ccc3ncc(C(=O)Nc4cccc(N5CCOCC5)n4)n3n2)s1 [Compound 65]
TAMRA EC1.5 (μM): A (EC1.5<1 μM)
Emax: < 350%

SMILES: O=C(Nc1cccc(N2CCCC2)n1)c1nnc2ccc(-c3ccccc3C(F)(F)F)nn12 [Compound 66]
TAMRA EC1.5 (μM): A (EC1.5<1 μM)
Emax: ≥ 350%

SMILES: O=C(Nc1cccc(N2CCOCC2)n1)c1nnc2ccc(-c3ccccc3C(F)(F)F)nn12 [Compound 67]
TAMRA EC1.5 (μM): A (EC1.5<1 μM)
Emax: ≥ 350%

SMILES: Cc1nc2ccc(-c3ccccc3C(F)(F)F)nn2c1C(=O)Nc1cccc(N2CCCC2)n1 [Compound 70]
TAMRA EC1.5 (μM): A (EC1.5<1 μM)
Emax: ≥ 350%

SMILES: Cc1nc2ccc(-c3ccccc3C(F)F)nn2c1C(=O)Nc1ccnc(N2CCOCC2)c1 [Compound 72]
TAMRA EC1.5 (μM): A (EC1.5<1 μM)
Emax: ≥ 350%

SMILES: O=C(Nc1cccc(N2CCC2)n1)c1nnc2ccc(-c3ccccc3C(F)(F)F)nn12 [Compound 73, N-(6-(azetidin-1-yl)pyridin-2-yl)-6-(2-(trifluoromethyl)phenyl)-[1,2,4]-triazolo[4,3-b]pyridazine-3-carboxamide]
TAMRA EC1.5 (μM): A (EC1.5<1 μM)
Emax: < 350%

SMILES: O=C(Nc1cc(OCC(O)CO)ccn1)c1cnc2ccc(-c3ccccc3C(F)(F)F)nn12 (stereo not drawn) [Compound 75, N-(4-(2,3-dihydroxypropoxy)pyridin-2-yl)-6-(2-(trifluoromethyl)phenyl)imidazo[1,2-b]pyridazine-3-carboxamide]
TAMRA EC1.5 (μM): B (EC1.5 1-25 μM)
Emax: ≥ 350%

SMILES: Cc1cc(OCC(O)CO)nc(NC(=O)c2cnc3ccc(-c4ccccc4C(F)(F)F)nn23)n1 (stereo not drawn) [Compound 76]
TAMRA EC1.5 (μM): B (EC1.5 1-25 μM)
Emax: ≥ 350%

SMILES: O=C(Nc1cccnn1)c1cnc2ccc(-c3ccccc3C(F)(F)F)nn12 [Compound 79]
TAMRA EC1.5 (μM): B (EC1.5 1-25 μM)
Emax: ≥ 350%

SMILES: O=C(Nc1cnc2ccc(-c3ccccc3C(F)(F)F)nn12)c1cccc(CN2CCOCC2)n1 [Compound 81]
TAMRA EC1.5 (μM): A (EC1.5<1 μM)
Emax: ≥ 350%

SMILES: O=C(Nc1cnc2ccc(-c3ccccc3C(F)(F)F)nn12)c1cccc(N2CCOCC2)n1 [Compound 82]
TAMRA EC1.5 (μM): A (EC1.5<1 μM)
Emax: ≥ 350%

SMILES: O=C(Nc1cnc2ccc(-c3ccccc3C(F)(F)F)nn12)c1ccccn1 [Compound 85]
TAMRA EC1.5 (μM): A (EC1.5<1 μM)
Emax: ≥ 350%

SMILES: O=C(Nc1cnc2ccc(-c3ccccc3C(F)(F)F)nn12)c1ccncc1 [Compound 87]
TAMRA EC1.5 (μM): C (EC1.5>25 μM)
Emax: < 350%

SMILES: O=C(Nc1cnc2ccc(-c3ccccc3C(F)(F)F)nn12)c1cnccn1 [Compound 88]
TAMRA EC1.5 (μM): A (EC1.5<1 μM)
Emax: ≥ 350%

SMILES: O=C(Nc1ccnc(OCC(O)CO)c1)c1cnc2ccc(-c3ccccc3C(F)(F)F)nn12 (stereo not drawn) [Compound 89]
TAMRA EC1.5 (μM): A (EC1.5<1 μM)
Emax: ≥ 350%

Results, then the molecule that gave them:

TAMRA EC1.5 (μM): A (EC1.5<1 μM)
Emax: ≥ 350%
SMILES: O=C(Nc1cnc2ccc(-c3ccccc3C(F)(F)F)nn12)c1ccncn1 [Compound 90]

TAMRA EC1.5 (μM): B (EC1.5 1-25 μM)
Emax: ≥ 350%
SMILES: Cn1ccnc1C(=O)Nc1cnc2ccc(-c3ccccc3C(F)(F)F)nn12 [Compound 91]

TAMRA EC1.5 (μM): B (EC1.5 1-25 μM)
Emax: < 350%
SMILES: O=C(Nc1ccncc1)c1cnc2ccc(-c3ccccc3Cl)nn12 [Compound 94]

TAMRA EC1.5 (μM): A (EC1.5<1 μM)
Emax: ≥ 350%
SMILES: O=C(Nc1ccnc(N2CCC2)c1)c1cnc2ccc(-c3ccccc3Cl)nn12 [Compound 96]

TAMRA EC1.5 (μM): B (EC1.5 1-25 μM)
Emax: ≥ 350%
SMILES: Cc1cncc(NC(=O)c2cnc3ccc(-c4ccccc4C(F)(F)F)nn23)c1 [Compound 97]

TAMRA EC1.5 (μM): A (EC1.5<1 μM)
Emax: ≥ 350%
SMILES: Cc1cc(NC(=O)c2cnc3ccc(-c4ccccc4C(F)(F)F)nn23)cc(C)n1 [Compound 99]

TAMRA EC1.5 (μM): A (EC1.5<1 μM)
Emax: ≥ 350%
SMILES: O=C(Nc1ccncc1F)c1cnc2ccc(-c3ccccc3C(F)(F)F)nn12 [Compound 100]

TAMRA EC1.5 (μM): A (EC1.5<1 μM)
Emax: ≥ 350%
SMILES: COc1cccc(NC(=O)c2cnc3ccc(-c4ccccc4C(F)(F)F)nn23)n1 [Compound 103]

TAMRA EC1.5 (μM): B (EC1.5 1-25 μM)
Emax: < 350%
SMILES: O=C(Nc1cncnc1)c1cnc2ccc(-c3ccccc3C(F)(F)F)nn12 [Compound 106]

TAMRA EC1.5 (μM): B (EC1.5 1-25 μM)
Emax: < 350%
SMILES: O=C(Nc1cccnc1)c1cnc2ccc(-c3ccccc3C(F)(F)F)nn12 [Compound 108]

TAMRA EC1.5 (μM): A (EC1.5<1 μM)
Emax: ≥ 350%
SMILES: Cc1cnc(NC(=O)c2cnc3ccc(-c4ccccc4C(F)(F)F)nn23)s1 [Compound 109]

TAMRA EC1.5 (μM): B (EC1.5 1-25 μM)
Emax: < 350%
SMILES: O=C(Nc1ncc(F)cc1F)c1cnc2ccc(-c3ccccc3C(F)(F)F)nn12 [Compound 111]

TAMRA EC1.5 (μM): B (EC1.5 1-25 μM)
Emax: < 350%
SMILES: O=C(Nc1ncco1)c1cnc2ccc(-c3ccccc3C(F)(F)F)nn12 [Compound 114]

TAMRA EC1.5 (μM): C (EC1.5>25 μM)
Emax: < 350%
SMILES: Cn1nccc1NC(=O)c1cnc2ccc(-c3ccccc3C(F)(F)F)nn12 [Compound 115]

TAMRA EC1.5 (μM): B (EC1.5 1-25 μM)
Emax: < 350%
SMILES: O=C(Nc1ccccn1)c1cnc2ccc(-c3ccccc3Cl)nn12 [Compound 117]

TAMRA EC1.5 (μM): B (EC1.5 1-25 μM)
Emax: < 350%
SMILES: O=C(Nc1cccnc1)c1cnc2ccc(-c3ccccc3Cl)nn12 [Compound 118]

TAMRA EC1.5 (μM): A (EC1.5<1 μM)
Emax: ≥ 350%
SMILES: O=C(Nc1cnc2ccc(-c3ccccc3C(F)(F)F)nn12)c1ncccn1 [Compound 121]

TAMRA EC1.5 (μM): A (EC1.5<1 μM)
Emax: ≥ 350%
SMILES: Cc1cnc(C(=O)Nc2cnc3ccc(-c4ccccc4C(F)(F)F)nn23)s1 [Compound 123]

TAMRA EC1.5 (μM): A (EC1.5<1 μM)
Emax: ≥ 350%
SMILES: O=C(Nc1cnc2ccc(-c3ccccc3C(F)(F)F)nn12)c1ccnc(N2CCCC2)c1 [Compound 124]

TAMRA EC1.5 (μM): B (EC1.5 1-25 μM)
Emax: < 350%
SMILES: O=C(Nc1cccc(CN2CCOCC2)n1)c1cnc2ccc(-c3ccc(F)c(F)c3F)nn12 [Compound 127]

TAMRA EC1.5 (μM): C (EC1.5>25 μM)
Emax: < 350%
SMILES: O=C(Nc1ccccn1)c1cnc2ccc(-c3ccc(F)c(F)c3F)nn12 [Compound 129]

TAMRA EC1.5 (μM): C (EC1.5>25 μM)
Emax: < 350%
SMILES: O=C(Nc1ccnc(N2CCC2)c1)c1cnc2ccc(-c3ccc(F)c(F)c3F)nn12 [Compound 132]

TAMRA EC1.5 (μM): A (EC1.5<1 μM)
Emax: ≥ 350%
SMILES: O=C(Nc1cccc(CN2CCOCC2)n1)c1cnc2ccc(-c3ccccc3F)nn12 [Compound 135]
